From ChEMBL document CHEMBL5143637, “Design, synthesis and antibacterial activity against pathogenic mycobacteria of conjugated hydroxamic acids, hydrazides and O-alkyl/O-acyl protected hydroxamic derivatives” (Bioorg Med Chem Lett, 2022)
Converted amounts (≈) assume the structure as drawn.

Legend:
[1] = test system: Mycobacteroides abscessus; experiment: Antimycobacterial activity against Mycobacterium abscessus CIP104536T with smooth morphotype assessed as inhibition of mycobacterial growth incubated for 3 to 5 days by resazurin microtiter assay; format: functional; conditions: time 3-5 day
[2] = test system: Mycobacteroides abscessus; experiment: Antimycobacterial activity against Mycobacterium abscessus CIP104536T with rough morphotype assessed as inhibition of mycobacterial growth incubated for 3 to 5 days by resazurin microtiter assay; format: functional; conditions: time 3-5 day
[3] = test system: Mycobacterium marinum; experiment: Antimycobacterial activity against Mycobacterium marinum ATCC BAA-535/M assessed as inhibition of mycobacterial growth incubated for 10 to 14 days by resazurin microtiter assay; format: functional; conditions: time 10-14 day
[4] = test system: Mycobacterium tuberculosis; experiment: Antimycobacterial activity against Mycobacterium tuberculosis mc2 6230 assessed as inhibition of mycobacterial growth incubated for 10 to 14 days by resazurin microtiter assay; format: functional; conditions: time 10-14 day
[5] = Cytotoxicity against C57BL/6 mouse BMDM cells assessed as reduction in cell viability measured after 24 hrs by resazurin dye based assay; format: toxicity; conditions: C57BL/6, mouse, BMDM cells (bone marrow-derived macrophages)

Row | Compound | MIC50 [1] [µg/mL] | MIC50 [2] [µg/mL] | MIC50 [3] [µg/mL] | MIC90 [3] [µg/mL] | MIC50 [4] [µg/mL] | MIC90 [4] [µg/mL] | CC50 at 24 h [5] [µg/mL] | MIC90 [2] [µg/mL] | MIC90 [1] [µg/mL]
1 | COc1ccc(/C=C/C=C/C(=O)NN)cc1 | > 100 | > 100 | 12.6 (≈ 57.7 µM) | 13.3 (≈ 60.9 µM) | 18.1 (≈ 82.9 µM) | 46.7 (≈ 214 µM) | 120 (≈ 550 µM) |  | 
2 | NNC(=O)/C=C/C=C/c1ccc(F)cc1 | > 100 | > 100 | 20.6 (≈ 99.9 µM) | > 100 | 27.4 (≈ 133 µM) | > 100 | > 125 |  | 
3 | O=C(/C=C/c1ccc(F)cc1)NO | > 100 | > 100 | 3.5 (≈ 19.3 µM) | 23.9 (≈ 132 µM) | 47.3 (≈ 261 µM) | 55.4 (≈ 306 µM) | < 10 |  | 
4 | CCCCCCCCc1ccc(/C=C/C=C/C(=O)NO)cc1 | > 100 | > 100 | 49.4 (≈ 164 µM) | > 100 | > 100 |  | < 10 |  | 
5 | NNC(=O)/C=C/c1cccc(C(F)(F)F)c1 | > 100 | 51.4 (≈ 223 µM) | > 100 |  | 40.5 (≈ 176 µM) | 65.7 (≈ 285 µM) | > 125 | 55.7 (≈ 242 µM) | 
6 | O=C(/C=C/C=C/c1ccncc1)NO | > 100 | > 100 | 26.9 (≈ 141 µM) | > 100 | 19.4 (≈ 102 µM) | 27.6 (≈ 145 µM) | < 10 |  | 
7 | O=C(/C=C/c1cccc(F)c1)NO | 12.2 (≈ 67.3 µM) | 7.6 (≈ 42 µM) | 3.3 (≈ 18.2 µM) | 25.9 (≈ 143 µM) | 13.5 (≈ 74.5 µM) | > 100 | < 10 | 68.4 (≈ 378 µM) | > 100
8 | NNC(=O)/C=C/C=C/c1cccc(F)c1 | > 100 | > 100 | > 100 |  | > 100 |  | > 125 |  | 
9 | CCCCCC(=O)ONC(=O)/C=C/c1ccc(OC)cc1 | 63 (≈ 216 µM) | > 100 | 21.2 (≈ 72.8 µM) | 46.7 (≈ 160 µM) | 32.8 (≈ 113 µM) | 61.4 (≈ 211 µM) | > 125 |  | 76.5 (≈ 263 µM)
10 | O=C(/C=C/C=C/c1cccc(F)c1)NO | 36.8 (≈ 178 µM) | 6 (≈ 29 µM) | 7.5 (≈ 36.2 µM) | 39.3 (≈ 190 µM) | 7.6 (≈ 36.7 µM) | > 100 | < 10 | 19 (≈ 91.7 µM) | > 100
11 | CCCCCCCOc1ccc(/C=C/C=C/C(=O)NN)cc1 | 26.6 (≈ 88 µM) | 9.7 (≈ 32.1 µM) | > 100 |  | 27 (≈ 89.3 µM) | 29.1 (≈ 96.2 µM) | 64 (≈ 212 µM) | 26.1 (≈ 86.3 µM) | > 100
12 | O=C(/C=C/C=C/c1ccc(-c2ccccc2)cc1)NO | 31.8 (≈ 120 µM) | 6.9 (≈ 26 µM) | > 100 |  | > 100 |  | > 125 | 7.5 (≈ 28.3 µM) | > 100
13 | O=C(/C=C/C=C/c1cccc(C(F)(F)F)c1)NO | 52.3 (≈ 203 µM) | 4.4 (≈ 17.1 µM) | 10.1 (≈ 39.3 µM) | > 100 | 50.5 (≈ 196 µM) | > 100 | < 10 | 7 (≈ 27.2 µM) | > 100
14 | NNC(=O)/C=C/c1cccc(F)c1 | > 100 | > 100 | 41.1 (≈ 228 µM) | > 100 | 65.8 (≈ 365 µM) | > 100 | > 125 |  | 
15 | O=C(/C=C/c1ccc(-c2ccccc2)cc1)NO | > 100 | > 100 | 20.8 (≈ 86.9 µM) | 68.6 (≈ 287 µM) | 20.6 (≈ 86.1 µM) | > 100 | 16 (≈ 66.9 µM) |  | 
16 | O=C(/C=C/C=C/c1ccc(F)cc1)NO | > 100 | > 100 | 18.1 (≈ 87.4 µM) | > 100 | > 100 |  | < 10 |  | 
17 | COc1ccc(/C=C/C=C/C(=O)NO)cc1 | > 100 | > 100 | 14.8 (≈ 67.5 µM) | 62.1 (≈ 283 µM) | 48 (≈ 219 µM) | > 100 | < 10 |  | 
18 | CCCC(=O)ONC(=O)/C=C/C=C/c1ccc(F)cc1 | > 100 | > 100 | 7.9 (≈ 28.5 µM) | 22.4 (≈ 80.8 µM) | 11.9 (≈ 42.9 µM) | 59.3 (≈ 214 µM) | > 125 |  | 
19 | CCCCOc1ccc(/C=C/C=C/C(=O)NO)cc1 | 27.2 (≈ 104 µM) | > 100 | > 100 |  | 38.6 (≈ 148 µM) | > 100 | > 125 |  | 59.3 (≈ 227 µM)
